# Test results from US8946478B2, “Benzamide derivative with anticancer activity and preparation method and use thereof” (Zhejiang Hisun Pharmaceutical Co., Ltd., priority 2010, dated 2015).
# Assays:
# [1] = tested on: 18 tumor cell strains; experiment: In vitro efficacy screening, summary over the tumor cell strains; assay type: cell-based, human; details: in vitro screening; for inhibitory effects on tumor cell proliferation (in words): BSI-201 as positive drug
# Method: (§1) Human colon cancer cell strains (Colo205 and HCT-116), human breast cancer cell strains (MCF-7 and MDA-MB435), human lung cancer cell strains (A549, 95D and NCI460), human ovarian cancer cell strains (OVCAR-5, OVCAR-8, HO8910 and SKOV-3), human leukemia (HL-60 and K562), human prostate cancer (DU145 and BXPC-3), human uterine cancer (Hela), human pancreatic cancer (PANC-1), human hepatoma (HepG 2) were all obtained from ATCC. Colo205, HL-60, K562 cells were cultured in RPMI 1640 containing 2 mM/L glutamine, 10% FBS, 1.0 mM sodium pyruvate. HCT-116, MCF-7, A549, 95D, HO8910, NCI460, OVCAR-5, OVCAR-8, DU145, BXPC-3, Hela, PANC-1, HepG2 cells were cultured in DMEM containing 2 mM/L glutamine, 10% FBS. MDA-MB435 cells were cultured in L-15 containing 2 mM/L glutamine, 10% FBS. SKOV-3 cells were cultured in McCoy's containing 2 mM/L glutamine, 10% FBS. Colo205, HL-60 and K562 cells were seeded in 96-well plates, 150 μL/well and 8000 cells/well, and the 96-well plates were pre-incubated in an incubator at 37° C. with 5% CO2, 100% relative humidity for 24 hours. HCT-116, MCF-7, NCI460, OVCAR-5, OVCAR-8, Hela, HepG 2 and MDA-MB435 cells were seeded in 96-well plates, 5000 cells/well; A549, 95D, HO8910, DU145, BXPC-3, PANC-1 and SKOV-3 cells were seeded in 96-well plates, 10000 cells/well, and the 96-well plates were pre-incubated in an incubator at 37° C. with 5% CO2, 100% relative humidity for 24 hours, to allow the cells to adhere.
# (§2) 50 μL of pre-cooled 50% (mass/volume) TCA was added into the time zero control wells for each cell strain to fix the cells. To other wells, 50 μL of various concentrations of compounds were added, and maintained for 48 h, wherein each drug concentration was in triplicate, and there were blank control wells (cell culture medium without cells), drug-free control wells (with no drugs but the same volume of complete medium) and positive drug BSI-201 control wells, and the plates were incubated in an incubator at 37° C. with 5% CO2, full humidity (100% relative humidity) for 48 hours
# (§3) 50 μL pre-cooled 50% (mass/volume) TCA was added onto the surface of the culture medium to fix the cells, which was then placed at 4° C. for 1 h. The supernatant was removed and each well was washed with deionized water for 5 times to remove TCA, serum proteins, etc. After dried in the air, about 100 μL enough amount of 0.4% SRB (formulated with 1% acetic acid) was added into each well, and was placed at room temperature for 20 to 30 min. Liquid in each well was discarded and each well was rapidly washed with 1% acetic acid for five times, to remove unbound dye until the unbound dye was completely rinsed clean. After dried in the air until the moisture was invisible, each well was added 200 μL Tris base to dissolve, shaken on a plate oscillator for 5 min or mixed by beating up and down with a pipette tip, and then measured on the multi-function instruction (M5 Detection System, MD Group Ltd.) with a detection wavelength of 515 nm, zero adjusted with 690 nm blank control.
# (§4) The dose-response curve was plotted by XL-fit to determine the GI50 value.
# [2] = tested on: human breast cancer cell strain MDA-MB435; experiment: In vitro SRB tumor cell growth inhibition (GI50); assay type: cell-based; details: MDA-MB435 cells
# Method: as §1, §2, §3, §4
# [3] = tested on: human colon cancer cell strain HCT-116; experiment: In vitro SRB tumor cell growth inhibition (GI50); assay type: cell-based; details: HCT-116 cells
# Method: as §1, §2, §3, §4
# [4] = tested on: human leukemia K562; experiment: In vitro SRB tumor cell growth inhibition (GI50); assay type: cell-based; details: K562 cells
# Method: as §1, §2, §3, §4
# [5] = tested on: human colon cancer cell strain Colo205; experiment: In vitro SRB tumor cell growth inhibition (GI50); assay type: cell-based; details: Colo 205 cells, 48 h
# Method: as §1, §2, §3, §4
# [6] = tested on: human lung cancer cell strain NCI-460; experiment: In vitro SRB tumor cell growth inhibition (GI50); assay type: cell-based; details: NCI-460 cells
# Method: as §1, §2, §3, §4
# [7] = tested on: human lung cancer cell strain 95D; experiment: In vitro SRB tumor cell growth inhibition (GI50); assay type: cell-based; details: 48 h, 95D cells
# Method: as §1, §2, §3, §4
# [8] = tested on: human ovarian cancer cell strain SKOV-3; experiment: In vitro SRB tumor cell growth inhibition (GI50); assay type: cell-based; details: SK-OV-3, SKOV-3 cells, 48 h
# Method: as §1, §2, §3, §4
# [9] = tested on: human prostate cancer BXPC-3; experiment: In vitro SRB tumor cell growth inhibition (GI50); assay type: cell-based; details: BXPC-3 cells, 48 h
# Method: as §1, §2, §3, §4
# [10] = tested on: human hepatoma HepG 2; experiment: In vitro SRB tumor cell growth inhibition (GI50); assay type: cell-based; details: HepG2, HepG 2 cells, 48 h
# Method: as §1, §2, §3, §4
# [11] = tested on: human pancreatic cancer PANC-1; experiment: In vitro SRB tumor cell growth inhibition (GI50); assay type: cell-based; details: PANC-1 cells
# Method: as §1, §2, §3, §4
# [12] = tested on: human ovarian cancer cell strain OVCAR-8; experiment: In vitro SRB tumor cell growth inhibition (GI50); assay type: cell-based; details: OVCAR-8 cells
# Method: as §1, §2, §3, §4
# [13] = tested on: human ovarian cancer cell strain HO8910; experiment: In vitro SRB tumor cell growth inhibition (GI50); assay type: cell-based; details: HO-8910, HO8910 cells, 48 h
# Method: as §1, §2, §3, §4
# [14] = tested on: human breast cancer cell strain MCF-7; experiment: In vitro SRB tumor cell growth inhibition (GI50); assay type: cell-based; details: MCF-7 cells
# Method: as §1, §2, §3, §4
# [15] = tested on: human leukemia HL-60; experiment: In vitro SRB tumor cell growth inhibition (GI50); assay type: cell-based; details: HL-60 cells
# Method: as §1, §2, §3, §4
# [16] = tested on: human uterine cancer Hela; experiment: In vitro SRB tumor cell growth inhibition (GI50); assay type: cell-based; details: 48 h, Hela cells
# Method: as §1, §2, §3, §4
# [17] = tested on: human lung cancer cell strain A549; experiment: In vitro SRB tumor cell growth inhibition (GI50); assay type: cell-based; details: A549 cells, 48 h
# Method: as §1, §2, §3, §4
# [18] = tested on: human prostate cancer DU145; experiment: In vitro SRB tumor cell growth inhibition (GI50); assay type: cell-based; details: DU145 cells
# Method: as §1, §2, §3, §4
Structure (SMILES),"efficacy in inhibition of tumor cell proliferation, graded in words against I-1 [1]",inhibitory effects on tumor cell proliferation (in words) [1],"GI50 ([2]; Homo sapiens, MDA-MB-435, 48 h)","GI50 ([3]; Homo sapiens, HCT-116, 48 h)","GI50 ([4]; Homo sapiens, K562, 48 h)",GI50 [5],"GI50 ([6]; Homo sapiens, NCI-460, 48 h)",GI50 [8],"GI50 ([14]; Homo sapiens, MCF7, 48 h)",GI50 [17],"GI50 ([18]; Homo sapiens, DU-145, 48 h)",also measured
"C#Cc1ccc(C(=O)NC(=O)OCC)cc1[N+](=O)[O-] [Compound I-3, N-ethoxycarbonyl-4-ethynyl-3-nitrobenzamide]",slightly lower than that of I-1,have inhibitory effects on tumor cell proliferation,4.16 µM,5.6 µM,7.03 µM,4.32 µM,37.3 µM,15 µM,6.81 µM,25 µM,3.79 µM,"GI50 ([7]; Homo sapiens, 95-D): 4.38 µM; GI50 [9]: 7.5 µM; GI50 [10]: 12 µM; GI50 ([11]; Homo sapiens, PANC-1, 48 h): 2.48 µM; GI50 ([12]; Homo sapiens, OVCAR-8, 48 h): 16.3 µM; GI50 [13]: 4.03 µM; GI50 ([15]; Homo sapiens, HL-60, 48 h): 3.2 µM; GI50 ([16]; Homo sapiens, HeLa): 9.9 µM"
"C#Cc1ccc(C(=O)NC(=O)OC(C)C)cc1[N+](=O)[O-] [Compound I-6, N-isopropoxycarbonyl-4-ethynyl-3-nitrobenzamide]",good effects on inhibition of tumor cell proliferation,have inhibitory effects on tumor cell proliferation,,,20.2 µM,9.09 µM,,,,,,
"C#Cc1ccc(C(=O)NC(=O)OCC(C)C)cc1[N+](=O)[O-] [Compound I-7, N-isobutoxycarbonyl-4-ethynyl-3-nitrobenzamide]",good effects on inhibition of tumor cell proliferation,have inhibitory effects on tumor cell proliferation,9.67 µM,,10.1 µM,3.15 µM,,,,,,
"C#Cc1ccc(C(=O)N(CCC)CCC)cc1[N+](=O)[O-] [Compound I-15, N,N-dipropyl-4-ethynyl-3-nitrobenzamide]",slightly lower than that of I-1,have inhibitory effects on tumor cell proliferation,,12 µM,,,17 µM,,9.92 µM,,2.37 µM,
"C#Cc1ccc(C(=O)N2CCNCC2)cc1[N+](=O)[O-] [Compound I-23, (4-ethynyl-3-nitrophenyl)(piperazin-1-yl)ketone]",slightly lower than that of I-1,have inhibitory effects on tumor cell proliferation,,,,,,31.3 µM,,56.8 µM,,GI50 ([3]; 48 h): 12.4 µM; GI50 ([4]; 48 h): 16.2 µM; GI50 ([6]; 48 h): 25.6 µM; GI50 [7]: 10.9 µM; GI50 ([11]; 48 h): 23.8 µM; GI50 ([14]; 48 h): 9.24 µM; GI50 ([15]; 48 h): 12.3 µM; GI50 [16]: 11.2 µM; GI50 ([18]; 48 h): 3.44 µM
"CC#Cc1ccc(C(=O)NC)cc1[N+](=O)[O-] [Compound I-26, N-methyl-4-(1-propynyl)-3-nitrobenzamide]",,have inhibitory effects on tumor cell proliferation,,,,,,105 µM,,130 µM,,
"C#Cc1ccc(C(=O)N2CCN(C)CC2)cc1[N+](=O)[O-].Cl [Compound I-29, (4-ethynyl-3-nitrophenyl)(4-methylpiperazin-1-yl)ketone hydrochloride]",slightly lower than that of I-1,have inhibitory effects on tumor cell proliferation,,,,,,,,,,"GI50 ([2]; 48 h, hydrochloride): 8.44 µM; GI50 ([3]; 48 h, hydrochloride): 14.3 µM; GI50 ([6]; 48 h, hydrochloride): 28.2 µM; GI50 ([7]; hydrochloride): 15.8 µM; GI50 ([12]; 48 h, hydrochloride): 29.3 µM; GI50 ([14]; 48 h, hydrochloride): 11.8 µM"
"C#Cc1ccc(C(=O)N2CCNCC2)cc1[N+](=O)[O-].Cl [Compound I-30, (4-ethynyl-3-nitrophenyl)(piperazin-1-yl)ketone hydrochloride]",slightly lower than that of I-1,have inhibitory effects on tumor cell proliferation,3.06 µM,10.3 µM,15.3 µM,,19.5 µM,,5.97 µM,,5.84 µM,"GI50 ([7]; Homo sapiens, 95-D): 10.9 µM; GI50 ([11]; Homo sapiens, PANC-1, 48 h): 18.1 µM; GI50 ([12]; Homo sapiens, OVCAR-8, 48 h): 10.3 µM; GI50 ([15]; Homo sapiens, HL-60, 48 h): 9.27 µM; GI50 ([16]; Homo sapiens, HeLa): 14 µM"
